Among the data in article PMC10794144, “A novel antibiotic class targeting the lipopolysaccharide transporter” (Nature, 2024) are MIC, MIC range and MIC90 values, retold here.

Experiment in all cases: microbe, parasite or virus in culture
The test system of one test is S. aureus ATCC 29213. The settings on record: Staphylococcus aureus, ATCC29213, CAMHB; mode of at least three replicates (RO7036668 one replicate). As to the method:
(§1) MIC determinations were performed using the broth microdilution method and in line with CLSI guidelines M07 and M100 (refs. [37],[38]). Bacterial inocula were prepared by diluting a 0.5 McFarland suspension in CAMHB or lysogeny broth (LB) specifically for A. baylyi isolates. […] MIC values of all of the tested antibiotics were read as the lowest compound concentration inhibiting bacterial growth by naked eye or beyond which the OD600 ceased to decrease.

Another test concerns A. baumannii. On the procedure: as §1
Another test concerns E. coli ATCC 25922. The settings on record: Escherichia coli, ATCC25922. As to the method:
as §1

The structures appear in SMILES notation. Converted amounts (≈) assume the structure as drawn.

For the compound `CN1C(=O)[C@H](CCCCN)NC(=O)[C@H](CCCN)NCc2cccnc2Sc2c(Cl)ccc(-c3ccc(C(=O)O)cc3)c2CNC(=O)[C@@H]1Cc1c[nH]c2ccccc12` [RO7202110], the MIC was over 64 µg/mL against S. aureus ATCC 29213; at most 0.06 µg/mL in the test on A. baumannii (Acinetobacter baumannii, ATCC17978, ATCC 17978, CAMHB, one replicate, MCPs read at 80% growth inhibition); at most 0.06 µg/mL against A. baumannii (Acinetobacter baumannii, ATCC19606, ATCC 19606, CAMHB, MCPs read at 80% growth inhibition); over 64 µg/mL in the test with E. coli ATCC 25922. The MIC range with A. baumannii (10 MDR isolates, CAMHB, MCPs read at 80% growth inhibition) is on record as ≤0.06 − 0.12 mg l^−1. In addition, the MIC90 in the test on A. baumannii (Acinetobacter baumannii) is 0.12 µg/mL (≈ 0.145 µM).
